From patent US7396837B2, “Antitumoral analogs of lamellarins” (Pharma Mar, S.A.U., priority 2002, dated 2008) come the findings set out here.

A word on the GI50: it is the concentration at which growth is held to half of that of the control.

Read-outs that look alike come from different tables or passages of the source.

Common to all, as to type: cell-based
One test concerns A-549. The test can be described thus: SRB colorimetric cell growth inhibition assay, A-549. The following applies: for GI50: GI=growth inhibition, read-out: GI50 A-549. The gist of the method: (§1)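 Human tumour cells were exposed continuously to the test sample, and growth and viability were quantified by sulforhodamine B staining. Means ± SD came from triplicate wells, and GI, TGI (cytostatic) and LC (cell killing) parameters were derived.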

The next test concerns SK-MEL-28. The test can be described thus: SRB colorimetric cell growth inhibition assay, SK-MEL-28. The gist of the method: as §1
In the next test the test system is HT-29. Description: SRB colorimetric cell growth inhibition assay, HT-29. The conditions noted are these: Homo sapiens. The gist of the method: as §1
Another test relates to LoVo. Description: SRB colorimetric cell growth inhibition assay, LoVo. The conditions noted are these: Homo sapiens; for IC (TGI): TGI=total growth inhibition (cytostatic effect), read-out: TGI LOVO. The essentials:
as §1

A further test relates to LoVo-Dox. The test can be described thus: SRB colorimetric cell growth inhibition assay, LoVo-Dox (MDR). The gist of the method: as §1
A further test concerns IGROV-ET. Description: SRB colorimetric cell growth inhibition assay, IGROV-ET (ET-743 resistant). The conditions noted are these: Homo sapiens, read-out: LC50 IGROV-ET, IGROV-ET; LC=cell killing (cytotoxic effect). The essentials: as §1
In the next test the test system is PANC-1. Description: SRB colorimetric cell growth inhibition assay, PANC-1. The conditions noted are these: Homo sapiens, PANC-1, read-out: LC50 PANC-1, PANC-1; LC=cell killing (cytotoxic effect). The essentials:
as §1

Another test has as its system SKOV-3. Description: SRB colorimetric cell growth inhibition assay, SKOV-3. The conditions noted are these: Homo sapiens, SK-OV-3, read-out: LC50 SKOV-3. The text has this: (§2) Inhibition of Cell Growth by Colorimetric Assay.
(§3) A colorimetric type of assay, using sulforhodamine B (SRB) reaction has been adapted for a quantitative measurement of cell growth and viability (following the technique described by P. A. Skehan, et al., J. Natl. Cancer Inst. 1990, 82, 1107-1112).
(§4) This form of assay employs 96 well cell culture microplates of 9 mm diameter (T. Mosmann et al., J. of Immunological Methods 1983, 65, 55-63; G. T. Faircloth et al., J. of Tissue and Culture Methods 1988, 11, 201-205).
(§5) Most of the cell lines are obtained from American Type Culture Collection (ATCC) derived from different human cancer types.
(§6) The values for mean +/− SD of data from triplicate wells are calculated. Some parameters for cellular responses can be calculated: GI=growth inhibition, TGI=total growth inhibition (cytostatic effect) and LC=cell killing (cytotoxic effect).

A further test deals with H-MEC-1. Description: SRB colorimetric cell growth inhibition assay, H-MEC-1. The following applies: Homo sapiens, TGI=total growth inhibition (cytostatic effect).
From the text: as §2, §3, §4, §5, §6

In the case of `COc1cc(-c2c3n(c4c(=O)oc5cc(OC(=O)[C@H](C)NC(=O)OC(C)(C)C)c(OC)cc5c24)CCc2c-3cc(OC)c(OC)c2OC(=O)[C@H](C)NC(=O)OC(C)(C)C)ccc1OC(=O)[C@H](C)NC(=O)OC(C)(C)C` [Compound 46], the GI50 stood at 2330 nM in the test with A-549 (A-549) and 1310 nM in the test on A-549 (Homo sapiens, A549, A-549). The IC (TGI) amounted to 9.57 µM in the test on A-549 (Homo sapiens, A549, A-549, TGI=total growth inhibition (cytostatic effect), read-out: TGI A-549); 0.00417 µM in the test with SK-MEL-28 (Homo sapiens, SK-MEL-28, MEL-28; TGI=total growth inhibition (cytostatic effect); read-out: TGI MEL-28); 9.57 µM in the test with SK-MEL-28 (Homo sapiens, SK-MEL-28; MEL-28; TGI=total growth inhibition (cytostatic effect); read-out: TGI MEL-28); 9.57 µM in the test with HT-29 (HT-29, TGI=total growth inhibition (cytostatic effect), read-out: TGI HT-29); 0.00932 µM in the test with LoVo (LoVo); 9.57 µM in the test on LoVo (LOVO). The IC (TGI) turned out to be 0.0957 µM in the test on LoVo-Dox (Homo sapiens, LOVO-DOX; TGI=total growth inhibition (cytostatic effect); read-out: TGI LOVO-DOX); 9.57 µM in the test on LoVo-Dox (Homo sapiens; LOVO-DOX; TGI=total growth inhibition (cytostatic effect); read-out: TGI LOVO-DOX); 9.57 µM in the test on H-MEC-1 (HMEC-1, read-out: TGI H-MEC-1, H-MEC-1); 0.000847 µM with H-MEC-1 (HMEC-1, H-MEC-1, read-out: TGI H-MEC-1). In addition, the CC50 in the test on A-549 (Homo sapiens, A549, read-out: LC50 A-549, A-549, LC=cell killing (cytotoxic effect)) amounted to 9.57 µM; in the test on HT-29 (HT-29, read-out: LC50 HT-29, HT-29, LC=cell killing (cytotoxic effect)) it was 9.57 µM; in the test with LoVo (LoVo, read-out: LC50 LOVO, LOVO, LC=cell killing (cytotoxic effect)) it was 9.57 µM; in the test on LoVo-Dox (Homo sapiens, read-out: LC50 LOVO-DOX, LOVO-DOX; LC=cell killing (cytotoxic effect)) it was 9.57 µM; in the test on IGROV-ET, 9.57 µM; with PANC-1, 9.57 µM. Further, the CC50 with SKOV-3 was found to be 9.57 µM.
